Assay results taken from the supplement of paper PMC10307832.

Assays:
Assay in all cases: relative viability (nuclei count vs DMSO), 5 days (fraction); higher = more cells survive
[1] = compound: O=C(CCCCCCC(=O)Nc1ccccc1)NO [Vorinostat] + C[C@@H](Oc1cc(-c2cnn(C3CCNCC3)c2)cnc1N)c1c(Cl)ccc(F)c1Cl [Crizotinib] (partner 1 µM)
How it was run: (§1)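 Lung cancer cell lines were pin-tool dosed in 1536-well plates on the day after seeding, with either a lone drug or a fixed anchor-drug dose plus five library-drug doses (not always all listed) in √10 steps. Nuclei were counted on 4× images after 5 days. Relative viability is the ratio of treated-well to vehicle-well nuclei counts, with each value a median of duplicate plates.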

[2] = compound: O=C(CCCCCCC(=O)Nc1ccccc1)NO [Vorinostat] + Nc1nc2[nH]cc(CCc3ccc(C(=O)N[C@@H](CCC(=O)O)C(=O)O)cc3)c2c(=O)[nH]1 [Pemetrexed] (partner 0.2 µM)
How it was run: as §1

[3] = compound: O=C(CCCCCCC(=O)Nc1ccccc1)NO [Vorinostat] + CC(=O)c1c(C)c2cnc(Nc3ccc(N4CCNCC4)cn3)nc2n(C2CCCC2)c1=O [Palbociclib] (partner 0.5 µM)
How it was run: as §1

[4] = compound: O=C(CCCCCCC(=O)Nc1ccccc1)NO [Vorinostat] + Cc1cc(Nc2cc(N3CCN(C)CC3)nc(Sc3ccc(NC(=O)C4CC4)cc3)n2)n[nH]1 [Tozasertib] (partner 0.1 µM)
How it was run: as §1

[5] = compound: O=C(CCCCCCC(=O)Nc1ccccc1)NO [Vorinostat] + NC(=O)Nc1cc(-c2cccc(F)c2)sc1C(=O)N[C@H]1CCCNC1 [AZD7762] (partner 0.2 µM)
How it was run: as §1

Cell Line	relative viability ([1]; first compound 0.253 µM)	relative viability ([1]; first compound 0.8 µM)	relative viability ([1]; first compound 2.53 µM)	relative viability ([1]; first compound 8 µM)	relative viability ([2]; first compound 0.253 µM)	relative viability ([2]; first compound 0.8 µM)	relative viability ([2]; first compound 2.53 µM)	relative viability ([2]; first compound 8 µM)	relative viability ([3]; first compound 0.253 µM)	relative viability ([3]; first compound 0.8 µM)	relative viability ([3]; first compound 2.53 µM)	relative viability ([3]; first compound 8 µM)	relative viability ([4]; first compound 0.253 µM)	relative viability ([4]; first compound 0.8 µM)	relative viability ([4]; first compound 2.53 µM)	relative viability ([4]; first compound 8 µM)	relative viability ([5]; first compound 0.253 µM)	relative viability ([5]; first compound 0.8 µM)	relative viability ([5]; first compound 2.53 µM)	relative viability ([5]; first compound 8 µM)
NCI-H2023	0.716	0.525	0.188	0.0669	0.233	0.182	0.103	0.067	0.467	0.375	0.199	0.0512	0.364	0.215	0.11	0.0623	–	–	–	–
NCI-H596	1.05	0.945	0.517	0.31	0.503	0.465	0.412	0.346	–	–	–	–	0.839	0.819	0.378	0.183	1.13	0.732	0.543	0.384
NCI-H2009	0.992	0.983	0.457	0.0597	0.993	0.955	0.666	0.131	0.267	0.25	0.171	0.0986	0.776	0.574	0.295	0.133	–	–	–	–
SW 1573	0.845	0.665	0.297	0.156	1.2	1.05	0.346	0.0659	0.433	0.305	0.212	0.0703	0.19	0.266	0.155	0.0644	–	–	–	–
NCI-H1703	0.977	0.716	0.298	0.113	–	–	–	–	–	–	–	–	–	–	–	–	0.126	–	0.189	0.0985
NCI-H520	0.796	0.482	0.133	0.108	0.831	0.663	0.322	0.17	0.351	0.31	0.19	0.133	0.422	0.37	0.207	0.209	–	–	–	–
COR-L23	0.542	0.25	0.0669	0.0606	0.2	0.182	0.148	0.12	0.281	0.19	0.0948	0.0728	0.19	0.0976	0.105	0.0594	–	–	–	–
NCI-H1650	0.848	0.519	0.29	0.101	0.307	0.341	0.29	0.18	0.281	0.234	0.164	0.0922	0.478	0.293	0.168	0.152	–	–	–	–
NCI-H1563	0.796	0.824	0.469	0.492	0.877	0.651	0.708	0.384	–	–	–	–	–	–	–	–	–	–	–	–
NCI-H522	–	–	–	–	1.22	1.05	1.01	0.262	1.2	0.879	0.616	0.252	0.644	0.457	0.302	0.141	0.987	1.05	0.834	0.235
NCI-H2228	0.593	0.502	0.246	0.168	0.336	0.297	0.252	0.132	0.713	0.431	0.22	0.0631	0.199	0.103	0.0837	0.0871	–	–	–	–
NCI-H1395	–	–	–	–	0.733	0.746	0.533	0.321	0.714	0.688	0.537	0.309	1.02	0.682	0.456	0.324	0.37	0.373	0.375	0.296
NCI-H1792	0.966	0.983	0.826	0.0888	0.795	0.524	0.163	0.0208	0.725	0.57	0.485	0.175	–	–	–	–	0.568	0.29	0.0683	0.0252
UMC-11	0.578	0.481	0.0587	0.0369	0.756	0.453	0.119	0.0862	0.356	0.233	0.179	0.116	0.195	0.164	0.147	0.129	–	–	–	–
NCI-H661	1.01	1.03	0.483	0.327	0.926	0.78	0.455	0.355	0.437	0.377	0.286	0.32	0.342	0.262	0.249	0.269	–	–	–	–
A549	0.528	0.107	0.054	0.0379	–	–	–	–	–	–	–	–	–	–	–	–	–	–	–	–
COR-L 105	0.65	0.383	0.221	0.199	1.21	1.25	0.7	0.281	0.402	0.396	0.283	0.284	0.458	0.331	0.245	0.213	–	–	–	–
NCI-H727	0.962	0.687	0.299	0.214	–	–	–	–	0.688	0.633	0.606	0.51	0.545	0.56	0.315	0.362	0.514	0.874	0.617	0.398
